Measurements taken from patent US20240246967A1, “AXL COMPOUNDS” (ARCUS BIOSCIENCES, INC., priority 2021, published 2024).

Biological target: T1, Axl (Homo sapiens, UniProt P30530)
T1 sequence (P30530 26-894): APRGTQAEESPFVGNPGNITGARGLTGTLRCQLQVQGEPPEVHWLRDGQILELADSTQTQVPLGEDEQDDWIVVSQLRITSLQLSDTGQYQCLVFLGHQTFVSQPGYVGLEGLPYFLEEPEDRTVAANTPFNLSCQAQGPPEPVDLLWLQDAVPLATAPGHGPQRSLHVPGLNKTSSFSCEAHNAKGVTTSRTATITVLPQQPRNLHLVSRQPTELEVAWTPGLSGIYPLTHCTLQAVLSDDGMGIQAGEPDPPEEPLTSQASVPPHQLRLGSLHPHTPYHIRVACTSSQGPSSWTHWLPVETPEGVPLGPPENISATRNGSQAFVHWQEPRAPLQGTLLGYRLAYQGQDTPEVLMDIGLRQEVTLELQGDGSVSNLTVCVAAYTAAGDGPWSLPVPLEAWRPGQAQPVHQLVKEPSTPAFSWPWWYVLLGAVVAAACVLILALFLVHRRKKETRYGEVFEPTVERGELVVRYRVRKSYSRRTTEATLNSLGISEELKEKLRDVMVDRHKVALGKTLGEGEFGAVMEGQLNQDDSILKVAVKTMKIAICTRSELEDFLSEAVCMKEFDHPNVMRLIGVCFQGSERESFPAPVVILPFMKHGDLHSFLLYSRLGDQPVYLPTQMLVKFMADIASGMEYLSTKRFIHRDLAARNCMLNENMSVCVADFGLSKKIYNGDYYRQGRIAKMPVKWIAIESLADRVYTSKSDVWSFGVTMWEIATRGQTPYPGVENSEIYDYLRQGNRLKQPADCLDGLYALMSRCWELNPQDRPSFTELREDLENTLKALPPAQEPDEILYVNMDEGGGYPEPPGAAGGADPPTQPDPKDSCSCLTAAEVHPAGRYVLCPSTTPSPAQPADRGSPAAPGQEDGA
Experiment: Axl NanoBRET intracellular kinase assay (intracellular binding, Cell Binding)
Set-up: host or cells: HEK-293
Conditions: HEK-293 cells transfected with Axl-NanoLuc fusion vector; 0.35 μM K-5 NanoBRET tracer
Method in brief: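 HEK-293 cells transiently expressing Axl-NanoLuc fusion were pre-incubated with compound for 1 h at 37 °C (0.5% DMSO), then with 0.35 μM K-5 tracer for 2 h. Tracer displacement read as reduced BRET ratio (610/450 nm); IC50 from 4-parameter fit.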

| Compound | IC50 |
| --- | --- |
| COCCNC(=O)c1ccc(-c2n[nH]c3ncc(-c4ccc5c(c4)CCC(C)(N4CCC[C@H]4C)CC5)cc23)cc1 (stereo partly drawn) [Example 72, N-(2-Methoxyethyl)-4-(5-{7-methyl-7-[(2R)-2-methylpyrrolidin-1-yl]-6,7,8,9-tetrahydro-5H-benzo[7]annulen-2-yl}-1H-pyrazolo[3,4-b]pyridin-3-yl)benzamide] | < 100 nM |
| COC1CCN(C(=O)c2ccc(-c3n[nH]c4ncc(-c5ccc6c(c5)CC[C@@H](N5CCCC5)CC6)cc34)cc2Cl)CC1 [Example 66, (S)-(2-Chloro-4-(5-(7-(pyrrolidin-1-yl)-6,7,8,9-tetrahydro-5H-benzo[7]annulen-2-yl)-1H-pyrazolo[3,4-b]pyridin-3-yl)phenyl)(4-methoxypiperidin-1-yl)methanone] | < 100 nM |
| CCC1(N2CCC[C@H]2C)CCc2ccc(-c3cnc4[nH]nc(-c5ccc(C(N)=O)c(Cl)c5)c4c3)cc2CC1 (stereo partly drawn) [Example 73, 2-Chloro-4-(5-{7-ethyl-7-[(2R)-2-methylpyrrolidin-1-yl]-6,7,8,9-tetrahydro-5H-benzo[7]annulen-2-yl}-1H-pyrazolo[3,4-b]pyridin-3-yl)benzamide] | < 100 nM |
| CC1(N2CCOCC2)CCc2ccc(-c3cnc4[nH]nc(-c5ccc(S(=O)(=O)C6CC6)cc5)c4c3)cc2CC1 (stereo not drawn) [Example 2, 4-(2-{3-[4-(Cyclopropanesulfonyl)phenyl]-1H-pyrazolo[3,4-b]pyridin-5-yl}-7-methyl-6,7,8,9-tetrahydro-5H-benzo[7]annulen-7-yl)morpholine] | > 1000 nM |

Continued, values first:

| IC50 | Compound |
| --- | --- |
| < 100 nM | C[C@@H]1CCCN1C1(C)CCc2ccc(-c3cnc4[nH]nc(-c5ccc(C(=O)N6CCC6)cc5)c4c3)cc2CC1 (stereo partly drawn) [Example 76, (2R)-1-(2-{3-[4-(Azetidine-1-carbonyl)phenyl]-1H-pyrazolo[3,4-b]pyridin-5-yl}-7-methyl-6,7,8,9-tetrahydro-5H-benzo[7]annulen-7-yl)-2-methylpyrrolidine] |
| 100 to 1000 nM | NS(=O)(=O)c1ccc(-c2n[nH]c3ncc(-c4ccc5c(c4)CCN(C4CCCC4)CC5)cc23)cc1Cl [Example 92, 2-Chloro-4-(5-(3-cyclopentyl-2,3,4,5-tetrahydro-1H-benzo[d]azepin-7-yl)-1H-pyrazolo[3,4-b]pyridin-3-yl)benzenesulfonamide] |
| < 100 nM | NC(=O)c1ccc(-c2n[nH]c3ncc(-c4ccc5c(c4)CCC(N4CCCC4)CC5)cc23)cc1F (stereo not drawn) [Example 81, 2-Fluoro-4-(5-(7-(pyrrolidin-1-yl)-6,7,8,9-tetrahydro-5H-benzo[7]annulen-2-yl)-1H-pyrazolo[3,4-b]pyridin-3-yl)benzamide] |
| < 100 nM | O=C(c1ccc(-c2n[nH]c3ncc(-c4ccc5c(c4)CC[C@@H](N4CCCC4)CC5)cc23)cc1Cl)N1CCC(O)CC1 [Example 85, (S)-(2-Chloro-4-(5-(7-(pyrrolidin-1-yl)-6,7,8,9-tetrahydro-5H-benzo[7]annulen-2-yl)-1H-pyrazolo[3,4-b]pyridin-3-yl)phenyl)(4-hydroxypiperidin-1-yl)methanone] |
| < 100 nM | NC(=O)c1ccc(-c2n[nH]c3ncc(-c4ccc5c(c4)CCC(N4CCCC4)CC5)cc23)cc1 (stereo not drawn) [Example 78, 4-(5-(7-(Pyrrolidin-1-yl)-6,7,8,9-tetrahydro-5H-benzo[7]annulen-2-yl)-1H-pyrazolo[3,4-b]pyridin-3-yl)benzamide] |
